# From patent publication US20240226049A1, “METHODS OF TREATMENT USING BEMPEDOIC ACID” (Esperion Therapeutics, Inc., priority 2023, published 2024)
# How the values were obtained:
# [1] = system: statin-intolerant patients with or at high risk of CVD; type: in vivo
# Description: The CLEAR OUTCOMES trial was a randomized, placebo-controlled, double-blind trial that enrolled patients at 1250 sites in 32 countries. An independent Data Monitoring Committee reviewed safety and efficacy data during the trial.
# Patients 18 to 85 years of age were eligible for enrollment if they met either of two criteria for increased cardiovascular risk, a prior cardiovascular event (secondary prevention) or clinical features that placed them at high risk for a cardiovascular event (primary prevention). (Nicholls S. Lincoff A M, Bays H E, et al. Rationale and design of the CLEAR-outcomes trial: Evaluating the effect of bempedoic acid on cardiovascular events in patients with statin intolerance. Am Heart J. 2021 May; 235:104-112) All patients provided written informed consent. Patients had to report statin intolerance due to an adverse effect that started or increased during statin therapy and resolved or improved after statin therapy was discontinued. Patients could be enrolled if they tolerated a very low average daily statin dose (e.g., an average daily dose of rosuvastatin <5 mg, atorvastatin <10 mg, simvastatin <10 mg, lovastatin <20 mg, pravastatin <40 mg, fluvastatin <40 mg, or pitavastatin <2 mg). Other lipid-lowering therapies were permitted, including ezetimibe, niacin, bile acid resins, fibrates, and/or proprotein convertase subtilisin kexin type 9 (PCSK9) inhibitors. Full inclusion and exclusion criteria are provided in Nicholls et al. (Am Heart J. 2021).
# Eligible patients entered a 4-week run-in period during which patients were treated with single-blind placebo. If patients were intolerant to placebo treatment or if adherence was <80% by tablet count, they were not eligible for randomization. Patients who successfully completed the run-in period were randomly assigned in a 1:1 ratio to receive bempedoic acid at an oral dose of 180 mg or matching placebo, administered daily. Beginning 6 months after enrollment, the central laboratory notified the investigator if the patient's LDL-cholesterol level was ≥25% higher than baseline. These patients were counseled on healthy dietary guidelines and reminded to take all lipid-regulating medications. If repeat testing confirmed that LDL-cholesterol value met the threshold criteria, the provider could adjust the lipid-lowering treatment regimen per standard of care and local guidelines.
# The primary end point was the first occurrence of a composite of death from cardiovascular causes, nonfatal myocardial infarction (MI), nonfatal stroke, or coronary revascularization. The first key secondary end point was time to the first occurrence of the composite of cardiovascular death, nonfatal stroke, or MI. Further key secondary end points included time to first occurrence of each of the following outcomes tested in hierarchical order, fatal or nonfatal MI, coronary revascularization, fatal or nonfatal stroke, death from cardiovascular causes, and all-cause mortality.
# This was an event-driven trial designed to provide at least 90% power to detect a 15% relative risk reduction for the primary composite end point at an overall two-sided significance level of 0.05. The trial required a minimum of 1620 primary composite events with ≥24 months of follow-up for all patients and at least 810 first key secondary end points. The average treatment duration was estimated to be 42 months and a lost-to-follow-up rate of 1% per year. Assuming a 3.59% annual event rate in the placebo group, enrollment of 12,600 patients was required, subsequently amended to 14,000. There were no interim efficacy analyses. A hierarchical approach was prespecified to evaluate sequentially each of the six key secondary efficacy end points with statistical significance at each step required to test the next hypothesis, thereby preserving the study-wise Type I error rate at 5%. All analyses were based on the intent-to-treat principle. […]
# [2] = system: statin-intolerant patients with or at high risk of CVD; type: in vivo; remark: listed apart in the source
# Protocol: CLEAR OUTCOMES (described in Example 1) was a randomized double-blind trial comparing orally administered bempedoic acid 180 mg once daily to placebo in statin-intolerant patients with or at high risk of CVD and an LDL-C ≥2.59 mmol/L. This prespecified analysis reports the time to event analysis of bempedoic acid versus placebo on the primary endpoint (MACE-4; composite of CV death, nonfatal MI, nonfatal stroke, or coronary revascularization) and key secondary end-point (MACE-3; death from cardiovascular causes, nonfatal myocardial infarction, nonfatal stroke) by baseline glycaemia status (diabetes, prediabetes, and normoglycaemia), and impact on HbA1c at 1 and 3 years and on NOD for subjects without diabetes at baseline.
# [3] = full population, 180 mg oral daily, N = 6992
# [4] = baseline diabetes, median 3.4 year follow up
# [5] = baseline normoglycaemia, p<0.0001
# [6] = baseline normoglycemia, median 3.4 year follow up
# [7] = baseline pre-diabetes, median 3.4 year follow up
# [8] = baseline pre-diabetes, p<0.0001
# [9] = diabetes, primary prevention CVD risk group
# [10] = diabetes, secondary prevention CVD risk group
# [11] = vs placebo, baseline normoglycemia
# [12] = vs placebo, baseline pre-diabetes
# [13] = vs placebo, diabetes, primary prevention
# [14] = vs placebo, diabetes, secondary prevention
# [15] = vs placebo, history of one or more cardiovascular events
# [16] = vs placebo, no prior history of cardiovascular events
smiles,measurement,setting,value
"CC(C)(CCCCCC(O)CCCCCC(C)(C)C(=O)O)C(=O)O [Bempedoic Acid, Bempedoic acid]","effect on other key secondary end points (time to first occurrence of stroke, death from cardiovascular causes, all-cause mortality)","[1]; compared with placebo, full population",no significant effects
same,"3-component MACE, % of patients",[1]; [3],(8.2) %
same,"Coronary revascularization, % of patients",[1]; [3],(6.2) %
same,"Fatal and non-fatal MI, % of patients",[1]; [3],(3.7) %
same,"Primary efficacy endpoint (MACE-4), % of patients",[1]; [3],(11.7) %
same,"New-onset type 2 diabetes mellitus, Hazard Ratio","[1]; human, in vivo",0.95
same,reduction in risk of non-fatal myocardial infarction,"[1]; vs placebo, 180 mg oral daily",about 27%
same,"3-component MACE, Hazard Ratio","[1]; vs placebo, full population",0.85
same,"5 component MACE, Hazard Ratio","[1]; vs placebo, full population",0.86
same,"All-cause mortality, nonfatal MI, nonfatal stroke, or coronary revascularization, Hazard Ratio","[1]; vs placebo, full population",0.89
same,"Coronary revascularization, Hazard Ratio","[1]; vs placebo, full population",0.81
same,"Fatal and non-fatal MI, Hazard Ratio","[1]; vs placebo, full population",0.77
same,"Fatal and non-fatal stroke, Hazard Ratio","[1]; vs placebo, full population",0.85
same,"Fatal and nonfatal non-hemorrhagic stroke, Hazard Ratio","[1]; vs placebo, full population",0.78
same,"Hospitalization for unstable angina, Hazard Ratio","[1]; vs placebo, full population",0.66
same,"Non-fatal MI, Hazard Ratio","[1]; vs placebo, full population",0.73
same,"Non-fatal stroke, Hazard Ratio","[1]; vs placebo, full population",0.82
same,"Primary efficacy endpoint (MACE-4), Hazard Ratio","[1]; vs placebo, full population",0.87
same,"Time to First Adjudicated MACE-3, Diabetes, % of patients",[2]; [4],8.9%
same,"Time to First Adjudicated MACE-3, Diabetes, patients with event/patients",[2]; [4],279/3144
same,"Time to First Adjudicated MACE-4, Diabetes, % of patients",[2]; [4],11.9%
same,"Time to First Adjudicated MACE-4, Diabetes, patients with event/patients",[2]; [4],374/3144
same,"LDL-C reduction compared to placebo at month 6, patients with diabetes","[2]; baseline diabetes, p<0.0001",21.2%
same,"LDL-C reduction compared to placebo at month 6 in absolute terms, patients with diabetes","[2]; baseline diabetes, p<0.0001",0.73 mmol/L
same,"LDL-C reduction compared to placebo at month 6, patients with normoglycaemia",[2]; [5],22.0%
same,"LDL-C reduction compared to placebo at month 6 in absolute terms, patients with normoglycaemia",[2]; [5],0.81 mmol/L
same,"Time to First Adjudicated MACE-3, Normoglycemia, % of patients",[2]; [6],7.2%
same,"Time to First Adjudicated MACE-3, Normoglycemia, patients with event/patients",[2]; [6],67/937
same,"Time to First Adjudicated MACE-4, Normoglycemia, % of patients",[2]; [6],10.1%
same,"Time to First Adjudicated MACE-4, Normoglycemia, patients with event/patients",[2]; [6],95/937
same,"Time to First Adjudicated MACE-3, Pre-Diabetes, % of patients",[2]; [7],7.9%
same,"Time to First Adjudicated MACE-3, Pre-Diabetes, patients with event/patients",[2]; [7],229/2911
same,"Time to First Adjudicated MACE-4, Pre-Diabetes, % of patients",[2]; [7],12.0%
same,"Time to First Adjudicated MACE-4, Pre-Diabetes, patients with event/patients",[2]; [7],350/2911
same,"LDL-C reduction compared to placebo at month 6, patients with pre-diabetes",[2]; [8],20.7%
same,"LDL-C reduction compared to placebo at month 6 in absolute terms, patients with pre-diabetes",[2]; [8],0.76 mmol/L
same,"Time to First Adjudicated MACE-3, Diabetes, Primary Prevention, % of patients",[2]; [9],4.9%
same,"Time to First Adjudicated MACE-3, Diabetes, Primary Prevention, patients with event/patients",[2]; [9],67/1369
same,"Time to First Adjudicated MACE-4, Diabetes, Primary Prevention, % of patients",[2]; [9],6.4%
same,"Time to First Adjudicated MACE-4, Diabetes, Primary Prevention, patients with event/patients",[2]; [9],87/1369
same,"Time to First Adjudicated MACE-3, Diabetes, Secondary Prevention, % of patients",[2]; [10],11.9%
same,"Time to First Adjudicated MACE-3, Diabetes, Secondary Prevention, patients with event/patients",[2]; [10],212/1775
same,"Time to First Adjudicated MACE-4, Diabetes, Secondary Prevention, % of patients",[2]; [10],16.2%
same,"Time to First Adjudicated MACE-4, Diabetes, Secondary Prevention, patients with event/patients",[2]; [10],287/1775
same,"reduction in risk of MACE (CV death, non-fatal MI or non-fatal stroke), adult with diabetes","[2]; vs placebo, 180 mg oral daily",about 20%
same,"reduction in risk of MACE (CV death, non-fatal MI, non-fatal stroke or coronary revascularization), adult with diabetes","[2]; vs placebo, 180 mg oral daily",about 17%
same,"Time to First Adjudicated MACE-3, Diabetes, HR","[2]; vs placebo, baseline diabetes",0.80
same,"Time to First Adjudicated MACE-4, Diabetes, HR","[2]; vs placebo, baseline diabetes",0.83
same,"Time to First Adjudicated MACE-3, Normoglycemia, HR",[2]; [11],0.96
same,"Time to First Adjudicated MACE-4, Normoglycemia, HR",[2]; [11],0.84
same,"Time to First Adjudicated MACE-3, Pre-Diabetes, HR",[2]; [12],0.92
same,"Time to First Adjudicated MACE-4, Pre-Diabetes, HR",[2]; [12],0.94
same,"Time to First Adjudicated MACE-3, Diabetes, Primary Prevention, HR",[2]; [13],0.65
same,"Time to First Adjudicated MACE-4, Diabetes, Primary Prevention, HR",[2]; [13],0.70
same,"Time to First Adjudicated MACE-3, Diabetes, Secondary Prevention, HR",[2]; [14],0.86
same,"Time to First Adjudicated MACE-4, Diabetes, Secondary Prevention, HR",[2]; [14],0.87
same,"reduction in risk of MACE (CV death, non-fatal MI or non-fatal stroke), adult with diabetes at risk for a secondary MACE",[2]; [15],at least 14%
same,"reduction in risk of MACE (CV death, non-fatal MI, non-fatal stroke or coronary revascularization), adult with diabetes at risk for a secondary MACE",[2]; [15],about 13%
same,"reduction in risk of MACE (CV death, non-fatal MI or non-fatal stroke), adult with diabetes at risk for a primary MACE",[2]; [16],about 35%
same,"reduction in risk of MACE (CV death, non-fatal MI, non-fatal stroke or coronary revascularization), adult with diabetes at risk for a primary MACE",[2]; [16],about 30%
